From patent US20160113932A1, “TREATMENT OF CANCERS USING PI3 KINASE ISOFORM MODULATORS” (INFINITY PHARMACEUTICALS, INC., priority 2013, published 2016)
Where “and” joins values, the source holds several entries; their conditions need not be identical. Equal entries are not always repeated.

What was measured:
[1] = test system: hemodynamic and electrocardiographic parameters; assay: Cardiovascular study in instrumented cynomolgus monkey; type: in vivo; settings: male cynomolgus monkeys
Description: Four non-naive, male monkeys implanted with radiotelemetry transmitters were utilized during the conduct of this study.

[2] = Absolute bioavailability / pharmacokinetics in BALB/c mice; type: in vivo; settings: Mouse, PO, 10 mg/kg, suspension, calculated using AUC0-last
[3] = Clinical pharmacokinetics after 25 mg or 75 mg BID administration; type: in vivo, human
[4] = test system: CD63 expression on the surface of activated CCR3+ basophils; assay: Basophil activation, ex vivo anti-FcεR1 activation assay, healthy subjects; type: in vivo, human; settings: single dose administration
[5] = test system: serum cytokines/chemokines and matrix metalloproteinases; assay: Serum cytokines/chemokines in patients, Milliplex 96-well immuno-assay; type: in vivo, human; settings: CLL patients pooled, 8-75 mg BID, C1D8 and/or C2D1
Description: Serum concentrations of a panel of human cytokines/chemokines were determined by Milliplex 96-well immuno-assay as described below.
the blood was allowed to clot for at least 30 minutes before centrifugation for 10 minutes at 1000×g. Serum was removed and either assayed immediately or aliquoted and stored at ≦−20° C. When using frozen samples, it is recommended to thaw the samples completely, mix well by vortexing and centrifuge prior to use in the assay to remove particulates.
1.0 mL deionized water was added to the bottle containing lyophilized Serum Matrix (catalog number MX HSM from MILLIPLEX® Map), and was allowed to be mixed will for at least 10 minutes for complete reconstitution.
200 μL of wash buffer was added into each well of the plate. The plate was sealed and mixed on a plate shaker for 10 minutes at room temperature (20-25° C.). The wash buffer was decanted and the residual amount was removed from all wells by inverting the plate and tapping it smartly onto absorbent towels several times. 25 μL of each standard or control was added into the appropriate wells. […]
The plate was run on Luminex 200™, HTS, FLEXMAP 3D™ or MAGPIX® with xPONENT software. The Median Fluorescent Intensity (MFI) data was saved and analyzed using a 5-parameter logistic or spline curve-fitting method for calculating cytokine/chemokines concentrations in samples. […]

[6] = test system: OCI-LY3; assay: DLBCL cellular growth inhibition assay; type: cell-based; settings: Homo sapiens
Description: Activation of the PI3K pathway is an important component of normal B-cell receptor (BCR) signaling and has been implicated in the pathogenesis of DLBCL. […] There was rapid modulation of phospho-AKT and phospho-PRAS40 by 30 minutes, whereas modulation of phospho-S6 was not detected until after 8 hours.

[7] = test system: Toledo; assay: DLBCL cellular growth inhibition assay; type: cell-based; settings: Homo sapiens
[8] = test system: Loucy; assay: T-ALL growth inhibition; type: cell-based, human; settings: Homo sapiens; PTEN deficient Loucy cell line
Description: To further explore the individual contributions of the varying PI3K isoforms on T-ALL cell growth, Loucy ALL cells were treated with doxorubicin and various PI3K inhibitors as shown in FIG. 32 at various concentrations as denoted in the figure.

C[C@H](Nc1ncnc2[nH]cnc12)c1cc2cccc(Cl)c2c(=O)n1-c1ccccc1 [Compound 292]
effects on hemodynamic or electrocardiographic parameters ([1]; single oral dose of 5, 30, and 150 mg/kg): No Compound 292-related effects
waveform abnormalities or arrhythmias ([1]; up to 150 mg/kg): no waveform abnormalities or arrhythmias
Foral [2]: 7% and 7i %
mean predose steady state plasma concentration ([3]; 25 mg BID): about 390 ng/ml
time of maximal plasma concentrations following dosing ([3]; 25 mg or 75 mg BID): around 1 hour
AUC versus dose ([3]; doses through 75 mg BID): increases proportionally with doses
half-life ([3]; human, plasma, oral, both 25 mg and 75 mg BID, read-out: elimination half-life): 4 to 5 h
dose at which maximal PD response was achieved [4]: 5 mg
analytes decreased after treatment compared to baseline [5]: 10 of 72 analytes
IC50 [6]: > 50 µM
IC50 [7]: > 50 µM
IC50 [8]: 0.245 µM
